# In the Kinase Knowledgebase extract (Sharma et al. 2016):
# Biological target: PIK3CG (human) (UniProt P48736)
# Experiment: Assessment of PIK3CG Kinase Activity
# Chain of PIK3CG (human) (P48736 whole entry, looked up): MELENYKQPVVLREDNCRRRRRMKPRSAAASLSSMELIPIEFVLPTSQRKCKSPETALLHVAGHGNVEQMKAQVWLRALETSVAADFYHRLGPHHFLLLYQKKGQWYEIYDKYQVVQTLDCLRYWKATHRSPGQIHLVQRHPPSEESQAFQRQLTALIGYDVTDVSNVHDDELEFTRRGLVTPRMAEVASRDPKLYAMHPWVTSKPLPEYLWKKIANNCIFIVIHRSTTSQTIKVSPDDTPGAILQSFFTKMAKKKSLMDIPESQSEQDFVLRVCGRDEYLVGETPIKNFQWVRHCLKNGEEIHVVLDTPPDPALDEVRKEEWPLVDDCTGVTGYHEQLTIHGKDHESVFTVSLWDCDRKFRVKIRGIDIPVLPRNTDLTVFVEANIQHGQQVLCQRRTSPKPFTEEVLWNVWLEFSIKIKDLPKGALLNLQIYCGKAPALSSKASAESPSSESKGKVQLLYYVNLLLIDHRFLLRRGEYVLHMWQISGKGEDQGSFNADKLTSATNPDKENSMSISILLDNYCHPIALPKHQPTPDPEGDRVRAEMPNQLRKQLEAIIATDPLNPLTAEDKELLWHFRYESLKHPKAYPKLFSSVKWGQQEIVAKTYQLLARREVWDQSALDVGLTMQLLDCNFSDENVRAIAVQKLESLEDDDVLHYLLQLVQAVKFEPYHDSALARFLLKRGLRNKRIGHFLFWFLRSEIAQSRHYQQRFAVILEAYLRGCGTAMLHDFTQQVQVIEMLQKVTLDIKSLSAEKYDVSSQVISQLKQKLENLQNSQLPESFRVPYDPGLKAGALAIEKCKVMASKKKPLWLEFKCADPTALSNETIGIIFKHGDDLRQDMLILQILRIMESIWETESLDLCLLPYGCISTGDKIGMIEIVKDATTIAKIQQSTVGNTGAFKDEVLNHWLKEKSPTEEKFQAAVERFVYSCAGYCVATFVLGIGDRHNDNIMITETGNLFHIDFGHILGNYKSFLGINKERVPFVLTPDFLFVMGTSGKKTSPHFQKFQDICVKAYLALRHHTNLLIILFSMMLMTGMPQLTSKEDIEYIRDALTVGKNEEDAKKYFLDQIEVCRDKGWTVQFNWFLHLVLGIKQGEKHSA
row,IC50,Structure (SMILES)
1,< 800 nM,CC(=O)Nc1nc2c(s1)-c1c(cnn1-c1ccc(CC(=O)N(C)Cc3ccccn3)cc1)CC2
2,< 800 nM,CC(=O)Nc1nc2c(s1)-c1c(cnn1-c1ccc(CC(=O)N3CCS(=O)(=O)CC3)cc1)CC2
3,< 800 nM,CC(=O)Nc1nc2c(s1)-c1c(cnn1-c1ccc(C(=O)NCCCn3ccnc3)cc1)CC2
4,< 800 nM,CC(=O)Nc1nc2c(s1)-c1c(cnn1-c1ccc(C(=O)N[C@H]3CC[C@H](N(Cc4ccccc4)Cc4ccccc4)CC3)cc1)CC2
5,< 800 nM,CC(=O)Nc1nc2c(s1)-c1nn(C(=O)C(C)C)cc1CC2
6,< 800 nM,CC(=O)Nc1nc2c(s1)-c1c(c(C(C)C)nn1-c1ccc(C(=O)N(C)Cc3ccncc3)cc1Cl)CC2
7,< 800 nM,CN(C)C(=O)Nc1nc2c(s1)-c1nc(-c3ccccc3)ncc1CC2
8,< 800 nM,CC(=O)Nc1nc2c(s1)-c1c(cnn1-c1ccc(C(=O)N[C@H]3CC[C@H](N4CCN(S(C)(=O)=O)CC4)CC3)cc1)CC2
9,< 800 nM,CC(=O)Nc1nc2c(s1)-c1nc(C)ncc1CC2
10,< 800 nM,CC(=O)Nc1nc2c(s1)-c1nc(-c3cccc(C)c3)ncc1CC2
11,< 800 nM,CC(=O)Nc1nc2c(s1)-c1nn(C3C=CCCC3)cc1CC2 (stereo not drawn)
12,< 800 nM,CC(=O)Nc1nc2c(s1)-c1c(cnn1-c1ccc(S(C)(=O)=O)cc1)CC2
13,< 800 nM,CC(=O)Nc1nc2c(s1)-c1c(cnn1-c1ccc(CC(=O)NCc3cccc(C(N)=O)c3)cc1)CC2
14,< 800 nM,CC(=O)Nc1nc2c(s1)-c1c(cnn1-c1ccc(CC(=O)N3CCN(c4ccccn4)CC3)cc1)CC2
15,< 800 nM,CN(C)c1ncc2c(n1)-c1sc(N)nc1CC2
16,< 800 nM,CC(=O)Nc1nc2c(s1)-c1c(c(C(C)C)nn1-c1ccccc1Cl)CC2
17,< 800 nM,CC(=O)Nc1nc2c(s1)-c1c(cnn1-c1cc(F)ccc1C)CC2
18,< 800 nM,CC(=O)Nc1nc2c(s1)-c1c(cnn1-c1ccc(C(=O)NCCCCCCN)cc1)CC2
19,< 800 nM,CC(=O)Nc1nc2c(s1)-c1c(cnn1C(=O)C1CC1)CC2
20,< 800 nM,CC(=O)Nc1nc2c(s1)-c1c(cnn1-c1c(Cl)cccc1Cl)C2
21,< 800 nM,Cc1ccccc1-c1ncc2c(n1)-c1sc(NC(=O)N(C)C)nc1CC2
22,< 800 nM,CC(=O)Nc1nc2c(s1)-c1c(cnn1-c1ccc(C(=O)N[C@H](CCCCNC(=N)N)C(N)=O)cc1Cl)CC2
23,< 800 nM,CC(=O)Nc1nc2c(s1)-c1nn(-c3ccccc3Cl)c(-c3cn(C)cn3)c1CC2
24,< 800 nM,CC(=O)Nc1nc2c(s1)-c1c(cnn1-c1ccc(C(=O)N3CCC(NC(=O)c4ccccc4)CC3)cc1)CC2
25,< 800 nM,CC(=O)Nc1nc2c(s1)-c1c(cnn1C)CC2

row,IC50,Structure (SMILES)
1,< 800 nM,CC(=O)Nc1nc2c(s1)-c1c(c(C)nn1-c1ccccc1)CC2
2,< 800 nM,COC(=O)c1nn(-c2ccc(C)cc2)c2c1CCc1nc(NC(C)=O)sc1-2
3,< 800 nM,CC(=O)Nc1nc2c(s1)-c1c(cnn1-c1ccc(C(=O)N3CCC(O)CC3)cc1)CC2
4,< 800 nM,CC(=O)Nc1nc2c(s1)-c1c(cnn1-c1ccc(C(=O)N[C@@H](COCc3ccccc3)C(N)=O)cc1Cl)CC2
5,< 800 nM,CC(=O)Nc1nc2c(s1)-c1c(cnn1-c1ccc(C(=O)N[C@H]3CC[C@H](N4C[C@@H](C)O[C@@H](C)C4)CC3)cc1)CC2
6,< 800 nM,CCc1ccccc1-n1ncc2c1-c1sc(NC(C)=O)nc1CC2
7,< 800 nM,CC(=O)Nc1nc2c(s1)-c1c(cnn1-c1ccc(C(=O)N[C@@H](Cc3cccc(Cl)c3)C(N)=O)cc1Cl)CC2
8,< 800 nM,CC(=O)Nc1nc2c(s1)-c1nc(C(C)C)nc(O)c1CC2
9,< 800 nM,CC(=O)Nc1nc2c(s1)-c1c(cnn1-c1ccc(CC(=O)NCC#Cc3ccncc3)cc1)CC2
10,< 800 nM,CC(=O)Nc1nc2c(s1)-c1nc(NC3CCN(C)CC3)ncc1CC2
11,< 800 nM,CC(=O)Nc1nc2c(s1)-c1nn(-c3ccccc3C)c(-c3cn(C)cn3)c1CC2
12,< 800 nM,CC(=O)Nc1ccc2c(c1)-c1sc(NC(C)=O)nc1CC2
13,< 800 nM,CC(=O)Nc1nc2c(s1)-c1c(cnn1-c1ccc(CC(=O)N(C)CC(C)O)cc1)CC2 (stereo not drawn)
14,< 800 nM,CN(C)CCCC(=O)Nc1nc2c(s1)-c1c(cnn1-c1ccccc1)C2
15,< 800 nM,CC(=O)Nc1nc2c(s1)-c1c(c(-c3ccco3)nn1-c1ccccc1Cl)CC2
16,< 800 nM,CN(C)CCNC(=O)Nc1nc2c(s1)-c1c(cnn1-c1ccccc1)CC2
17,< 800 nM,CC(=O)Nc1nc2c(s1)-c1nc(-n3cccn3)ncc1CC2
18,< 800 nM,CC(=O)Nc1nc2c(s1)-c1c(cnn1-c1ccc(CC(=O)NCCCN3CCOCC3)cc1)CC2
19,< 800 nM,CC(=O)Nc1nc2c(s1)-c1c(cnn1-c1ccccc1Cl)C2
20,< 800 nM,CC(=O)Nc1nc2c(s1)-c1c(cnn1-c1ccc(S(=O)(=O)N(C)CCN(C)C)cc1)CC2
21,< 800 nM,CN(C)CCCC(=O)Nc1nc2c(s1)-c1nc(-c3ccccc3)ncc1CC2
22,< 800 nM,COc1ccc(-n2ncc3c2-c2sc(NC(C)=O)nc2C3)cc1
23,< 800 nM,CC(=O)Nc1nc2c(s1)-c1c(cnn1-c1ccc(C(=O)NCCC3CCCN3C)cc1)CC2 (stereo not drawn)
24,< 800 nM,CC(=O)Nc1nc2c(s1)-c1c(cnn1-c1ccc(C(=O)N3CCC4(CC3)CNC(=O)O4)cc1)CC2
25,< 800 nM,CC(=O)Nc1nc2c(s1)-c1nc(SCCCN(C)C)ncc1CC2

row,IC50,Structure (SMILES)
1,< 800 nM,CC(=O)Nc1nc2c(s1)-c1c(cnn1-c1ccc(CC(=O)N3CCN(c4ccncc4)CC3)cc1)CC2
2,< 800 nM,CC(=O)Nc1nc2c(s1)-c1c(cnn1-c1ccc(C(=O)N[C@@H](C(N)=O)[C@H](C)O)cc1Cl)CC2
3,< 800 nM,CC(=O)Nc1nc2c(s1)-c1c(cnn1-c1ccc(C(=O)N3CCN(c4ccncc4)CC3)cc1)CC2
4,< 800 nM,CC(=O)Nc1nc2c(s1)-c1c(cnn1-c1ccc(C(=O)N3CCCC(=O)CC3)cc1)CC2
5,< 800 nM,CC(=O)Nc1nc2c(s1)-c1c(cnn1-c1ccc(CC(=O)N(C)CC(=O)N(C)C)cc1)CC2
6,< 800 nM,CC(=O)Nc1nc2c(s1)-c1c(cnn1-c1ccc(C(=O)N3CCCCC3CO)cc1)CC2 (stereo not drawn)
7,< 800 nM,CC(=O)Nc1nc2c(s1)-c1c(cnn1-c1ccc(C(=O)N(C)Cc3cnn(C)c3)cc1)CC2
8,< 800 nM,CC(=O)Nc1nc2c(s1)-c1c(cnn1-c1ccc(C(=O)N[C@@H](CC(=O)O)C(N)=O)cc1Cl)CC2
9,< 800 nM,CC(=O)Nc1nc2c(s1)-c1nn(-c3ccccc3Cl)c(-c3ccoc3)c1CC2
10,< 800 nM,CC(=O)Nc1nc2c(s1)-c1c(cnn1-c1ccc(C(=O)NCc3ccncc3)cc1)CC2
11,< 800 nM,CC(=O)Nc1nc2c(s1)-c1c(cnn1-c1ccc(F)cc1)CC2
12,< 800 nM,CC(=O)Nc1nc2c(s1)-c1c(cnn1-c1ccc(C(=O)NCCc3cccnc3)cc1)CC2
13,< 800 nM,CC(=O)Nc1nc2c(s1)-c1c(c([C@H]3CCCO3)nn1-c1ccc(C(=O)N(C)Cc3ccncc3)cc1Cl)CC2
14,< 800 nM,CC(=O)Nc1nc2c(s1)-c1c(cnn1-c1ccc(C(=O)NCc3nccn3C)cc1)CC2
15,< 800 nM,CC(=O)Nc1nc2c(s1)-c1c(cnn1-c1ccc(C(=O)NCC3OCCO3)cc1)CC2
16,< 800 nM,CC(=O)Nc1nc2c(s1)-c1c(cnn1C(=O)c1ccccc1Cl)CC2
17,< 800 nM,CC(=O)Nc1nc2c(s1)-c1c(cnn1-c1ccc(C(=O)NCc3ccc(C(N)=O)cc3)cc1)CC2
18,< 800 nM,CCN(CC)C(=O)C1CCCCN1C(=O)c1ccc(-n2ncc3c2-c2sc(NC(C)=O)nc2CC3)cc1 (stereo not drawn)
19,< 800 nM,CC(=O)Nc1nc2c(s1)-c1c(c(-c3ccco3)nn1-c1ccccc1C(F)(F)F)CC2
20,< 800 nM,CC(=O)Nc1nc2c(s1)-c1c(cnn1-c1cccc(C(=O)O)c1)CC2
21,< 800 nM,COCc1nn(-c2ccc(C(=O)NC3CCN(C)CC3)cc2Cl)c2c1CCc1nc(NC(C)=O)sc1-2
22,< 800 nM,CC(=O)Nc1nc2c(s1)-c1c(cnn1-c1ccc(C(=O)N(C)CC(=O)N(C)C)cc1)CC2
23,< 800 nM,CC(=O)Nc1nc2c(s1)-c1c(cnn1-c1ccc(C)cc1)C2
24,< 800 nM,O=C(CNC[C@H](O)[C@@H](O)[C@H](O)[C@H](O)CO)Nc1nc2c(s1)-c1c(cnn1-c1ccccc1)CC2
25,< 800 nM,CC(=O)Nc1nc2c(s1)-c1cc(NC(C)C)ccc1CC2

row,IC50,Structure (SMILES)
1,< 800 nM,CCn1ncc2c1-c1sc(NC(C)=O)nc1CC2
2,< 800 nM,Nc1nc2c(s1)-c1c(cnn1-c1ccc([N+](=O)[O-])cc1)CC2
3,< 800 nM,COC(=O)c1nn(-c2ccccc2F)c2c1CCc1nc(NC(C)=O)sc1-2
4,< 800 nM,O=C(Nc1nc2c(s1)-c1nc(-c3ccccc3)ncc1CC2)N1CCCCC1
5,< 800 nM,COCc1nn(-c2ccccc2Cl)c2c1CCc1nc(NC(C)=O)sc1-2
6,< 800 nM,COc1ccc(-n2ncc3c2-c2sc(NC(C)=O)nc2CC3)cc1
7,< 800 nM,NCC(=O)Nc1nc2c(s1)-c1c(cnn1-c1ccccc1)CC2
8,< 800 nM,COCc1nn(-c2ccc(C(=O)NCc3ccncc3)cc2Cl)c2c1CCc1nc(NC(C)=O)sc1-2
9,< 800 nM,CC(=O)Nc1nc2c(s1)-c1c(cnn1-c1ccc(C(=O)NCCO)cc1)CC2
10,< 800 nM,CCC(=O)Nc1nc2c(s1)-c1c(cnn1-c1ccccc1)CC2
11,< 800 nM,CC(=O)Nc1nc2c(s1)-c1c(cnn1-c1ccc(C(=O)N[C@@H](CCS(C)(=O)=O)C(N)=O)cc1Cl)CC2
12,< 800 nM,CC(=O)Nc1nc2c(s1)-c1c(c(NC(=O)OC(C)C)nn1-c1ccccc1Cl)CC2
13,< 800 nM,CC(=O)Nc1nc2c(s1)-c1c(c(-c3c[nH]cn3)nn1-c1ccccc1Cl)CC2
14,< 800 nM,CC(=O)Nc1nc2c(s1)-c1c(cnn1-c1ccc(C(=O)NC3CCN(C)CC3)cc1)CC2
15,< 800 nM,CC(=O)Nc1nc2c(s1)-c1c(cnn1-c1ccc(C(=O)N[C@H]3CCc4nc(N)sc4C3)cc1)CC2
16,< 800 nM,CC=Cn1ncc2c1-c1sc(NC(C)=O)nc1CC2
17,< 800 nM,CC(=O)Nc1nc2c(s1)-c1c(c(-c3cn(C)cn3)nn1-c1ccccc1Cl)CC2
18,< 800 nM,CC(=O)Nc1nc2c(s1)-c1nc(-c3ccccc3)ncc1C2
19,< 800 nM,COc1ccccc1-n1nc(-c2ccccc2)c2c1-c1sc(NC(C)=O)nc1CC2
20,< 800 nM,CC(=O)Nc1nc2c(s1)-c1c(c(-c3ccco3)nn1-c1ccccc1F)CC2
21,< 800 nM,CC(=O)Nc1nc2c(s1)-c1c(cnn1-c1ccc(C(=O)N[C@@H](Cc3ccc4ccccc4c3)C(N)=O)cc1Cl)CC2
22,< 800 nM,CC(=O)Nc1nc2c(s1)-c1c(cnn1-c1ccc(C(=O)NC(C)(C)CN3CCOCC3)cc1)CC2
23,< 800 nM,CC(=O)Nc1nc2c(s1)-c1nc(-c3ccccc3Cl)ncc1C2
